From PubChem BioAssay AID248 (DTP/NCI, 2004)
Toxic doses and inconclusive results are not listed. Cut-off read from the data, not from the text of the source: active = T/C of 150% or more; inactive = T/C below 125%.

Tested on: L1210 leukemia ip in BDF1 mice, survival T/C
Experiment: NCI In Vivo Anticancer Drug Screen. Data for tumor model L1210 Leukemia (intraperitoneal) in B6D2F1 (BDF1) mice
Conditions: endpoint: mean survival time, higher = longer survival
How it was run: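 Ratio derived from survival: compound-dosed mice over vehicle-dosed mice, all bearing a transplantable tumor.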

[1] = dose: 100.0 mg/kg/injection, schedule: Q01DX009 (ip), vehicle: Klucel (hydroxypropylcellulose) (HPC)
[2] = dose: 200.0 mg/kg/injection, schedule: Q01DX009 (ip), vehicle: Klucel (hydroxypropylcellulose) (HPC)
[3] = dose: 400.0 mg/kg/injection, schedule: Q01DX009 (ip), vehicle: Klucel (hydroxypropylcellulose) (HPC)
[4] = dose: 100.0 mg/kg/injection, schedule: Q01DX009 (ip), vehicle: saline
[5] = dose: 200.0 mg/kg/injection, schedule: Q01DX009 (ip), vehicle: saline
[6] = dose: 100.0 mg/kg/injection, schedule: Q04DX003 (ip), vehicle: other
[7] = dose: 200.0 mg/kg/injection, schedule: Q04DX003 (ip), vehicle: other
[8] = dose: 100.0 mg/kg/injection, schedule: Q04DX003 (ip), vehicle: saline
[9] = dose: 100.0 mg/kg/injection, schedule: Q01DX001 (ip), vehicle: saline
[10] = dose: 200.0 mg/kg/injection, schedule: Q01DX001 (ip), vehicle: saline
[11] = dose: 400.0 mg/kg/injection, schedule: Q01DX001 (ip), vehicle: saline
[12] = dose: 100.0 mg/kg/injection, schedule: Q04DX003 (ip), vehicle: Klucel (hydroxypropylcellulose) (HPC)
[13] = dose: 200.0 mg/kg/injection, schedule: Q04DX003 (ip), vehicle: Klucel (hydroxypropylcellulose) (HPC)
[14] = dose: 400.0 mg/kg/injection, schedule: Q04DX003 (ip), vehicle: Klucel (hydroxypropylcellulose) (HPC)

Measured: T/C

O=C(O)c1ccc(S(=O)(=O)Cl)cc1
inactive: dose: 12.5 mg/kg/injection, schedule: Q04DX002 (ip), vehicle: Klucel (hydroxypropylcellulose) (HPC) 97 % of control | dose: 25.0 mg/kg/injection, schedule: Q04DX002 (ip), vehicle: Klucel (hydroxypropylcellulose) (HPC) 90 % of control | dose: 50.0 mg/kg/injection, schedule: Q04DX002 (ip), vehicle: Klucel (hydroxypropylcellulose) (HPC) 107 % of control

O=COCCc1ccccc1
inactive: [1] 102 % of control | [2] 102 % of control | [3] 97 % of control

CCN(CC)CCN(CC)CCN(CC)CC
inactive: [4] 94 % of control | [5] 115 % of control

NC(=S)N/N=C(\c1ccccc1)c1ccccn1
inactive: dose: 12.5 mg/kg/injection, schedule: Q01DX009 (ip), vehicle: gum acacia 101 % of control | dose: 25.0 mg/kg/injection, schedule: Q01DX001 (ip), vehicle: gum acacia 100 % of control | dose: 25.0 mg/kg/injection, schedule: Q01DX009 (ip), vehicle: gum acacia 95 % of control | dose: 25.0 mg/kg/injection, schedule: Q04DX003 (ip), vehicle: gum acacia 105 % of control | dose: 50.0 mg/kg/injection, schedule: Q01DX001 (ip), vehicle: gum acacia 106 % of control | dose: 50.0 mg/kg/injection, schedule: Q01DX009 (ip), vehicle: gum acacia 93 % of control | dose: 50.0 mg/kg/injection, schedule: Q04DX003 (ip), vehicle: gum acacia 100 % of control | dose: 100.0 mg/kg/injection, schedule: Q01DX001 (ip), vehicle: gum acacia 95 % of control

CC1CC=CCC1COC(OCC1CC=CCC1C)C1CC=CCC1C (stereo not drawn)
inactive: dose: 100.0 mg/kg/injection, schedule: Q01DX009 (ip), vehicle: other 93 % of control | [6] 100 % of control | dose: 200.0 mg/kg/injection, schedule: Q01DX009 (ip), vehicle: other 98 % of control | [7] 98 % of control | dose: 400.0 mg/kg/injection, schedule: Q01DX009 (ip), vehicle: other 93 % of control | dose: 400.0 mg/kg/injection, schedule: Q04DX003 (ip), vehicle: other 96 % of control

C=CCc1cc(CN(C)CCO)c(O)c(OC)c1
inactive: dose: 25.0 mg/kg/injection, schedule: Q04DX003 (ip), vehicle: saline 95 % of control | dose: 50.0 mg/kg/injection, schedule: Q04DX003 (ip), vehicle: saline 95 % of control | [8] 91 % of control

C=CS(=O)(=O)CCc1ccccc1
inactive: dose: 100.0 mg/kg/injection, schedule: Q04DX002 (ip), vehicle: saline with Tween-80 115 % of control | dose: 200.0 mg/kg/injection, schedule: Q04DX002 (ip), vehicle: saline with Tween-80 102 % of control | dose: 400.0 mg/kg/injection, schedule: Q04DX002 (ip), vehicle: saline with Tween-80 91 % of control

O=[N+]([O-])c1cccc(O)c1
inactive: dose: 50.0 mg/kg/injection, schedule: Q01DX009 (ip), vehicle: saline 99 % of control | [4] 92 % of control | [6] 106 % of control | [5] 115 % of control | [7] 112 % of control

CCCCCCCCCCCCCCCC(=O)SCCSC(=O)CCCCCCCCCCCCCCC
inactive: dose: 87.5 mg/kg/injection, schedule: Q04DX003 (ip), vehicle: other 93 % of control | dose: 175.0 mg/kg/injection, schedule: Q04DX003 (ip), vehicle: other 93 % of control

O=C(O)c1c(Cl)cccc1[N+](=O)[O-]
inactive: [9] 100 % of control | [10] 96 % of control | [11] 102 % of control

CCOC(=O)c1ccc(NC(=S)NC(=O)c2ccco2)cc1
inactive: dose: 100.0 mg/kg/injection, schedule: Q01DX009 (ip), vehicle: saline with Tween-80 98 % of control | [12] 102 % of control | dose: 200.0 mg/kg/injection, schedule: Q01DX009 (ip), vehicle: saline with Tween-80 98 % of control | [13] 98 % of control | dose: 400.0 mg/kg/injection, schedule: Q01DX009 (ip), vehicle: saline with Tween-80 98 % of control | [14] 96 % of control

CCOC(=O)n1[nH][nH]c2c(c(=O)n(C)c(=O)n2C)n1C(=O)OCC
inactive: dose: 75.0 mg/kg/injection, schedule: Q04DX003 (ip), vehicle: saline 95 % of control | dose: 150.0 mg/kg/injection, schedule: Q04DX003 (ip), vehicle: saline 95 % of control | dose: 300.0 mg/kg/injection, schedule: Q04DX003 (ip), vehicle: saline 94 % of control

CCCN(CCC)CCCN(CCC)CCCCN(CCC)CCCN(CCC)CCC
inactive: [9] 98 % of control

CCCC1C(CC)C=NN1Cc1ccccc1 (stereo not drawn)
inactive: dose: 50.0 mg/kg/injection, schedule: Q01DX001 (ip), vehicle: carboxymethylcellulose (CMC) 88 % of control | dose: 100.0 mg/kg/injection, schedule: Q01DX001 (ip), vehicle: carboxymethylcellulose (CMC) 100 % of control | dose: 200.0 mg/kg/injection, schedule: Q01DX001 (ip), vehicle: carboxymethylcellulose (CMC) 94 % of control | dose: 400.0 mg/kg/injection, schedule: Q01DX001 (ip), vehicle: carboxymethylcellulose (CMC) 92 % of control

CN(C)C(=O)O/N=C(\c1ccccc1)C(F)(F)F
inactive: dose: 0.5 mg/kg/injection, schedule: Q01DX001 (ip), vehicle: saline 103 % of control | dose: 1.0 mg/kg/injection, schedule: Q01DX001 (ip), vehicle: saline 102 % of control | dose: 2.0 mg/kg/injection, schedule: Q01DX001 (ip), vehicle: saline 97 % of control

ClC(Cl)(Cl)C(Nc1ccccc1)Nc1ccccc1
inactive: [1] 87 % of control | [12] 94 % of control | [2] 96 % of control | [13] 90 % of control | [3] 91 % of control | [14] 92 % of control

CCC(C)N1C(=O)CCC1=O (stereo not drawn)
inactive: dose: 150.0 mg/kg/injection, schedule: Q01DX001 (ip), vehicle: saline 101 % of control | dose: 300.0 mg/kg/injection, schedule: Q01DX001 (ip), vehicle: saline 101 % of control | dose: 600.0 mg/kg/injection, schedule: Q01DX001 (ip), vehicle: saline 101 % of control

CC(=O)c1ccc(CC23CC4CC(CC(C4)C2)C3)cc1
inactive: [1] 99 % of control | [2] 90 % of control | [3] 94 % of control

CC(=O)c1ccccc1Cc1cccc2c(Cl)cccc12
inactive: [12] 95 % of control | [13] 100 % of control | [14] 88 % of control

CCCCOP(=S)(Nc1ccccc1)OCCCC
inactive: [12] 107 % of control | [13] 107 % of control | [14] 122 % of control

COC1(c2ccccc2)Oc2ccccc2C(=O)C1(O)C[N+](=O)[O-] (stereo not drawn)
inactive: dose: 50.0 mg/kg/injection, schedule: Q01DX001 (ip), vehicle: saline 95 % of control | [9] 89 % of control | [10] 95 % of control | [11] 101 % of control

OCC1C=CCC=C1
inactive: [8] 100 % of control | dose: 200.0 mg/kg/injection, schedule: Q04DX003 (ip), vehicle: saline 98 % of control | dose: 400.0 mg/kg/injection, schedule: Q04DX003 (ip), vehicle: saline 93 % of control

CSCCOP(=O)(N(C)C)N(C)C
inactive: dose: 100.0 mg/kg/injection, schedule: Q04DX002 (ip), vehicle: Klucel (hydroxypropylcellulose) (HPC) 103 % of control | dose: 200.0 mg/kg/injection, schedule: Q04DX002 (ip), vehicle: Klucel (hydroxypropylcellulose) (HPC) 103 % of control | dose: 400.0 mg/kg/injection, schedule: Q04DX002 (ip), vehicle: Klucel (hydroxypropylcellulose) (HPC) 88 % of control
